Results reported in publication PMC10861881 (Proceedings of the National Academy of Sciences of the …, 2024).
≈ marks a conversion by molar mass, not a printed value.

Experiments:
[1] = Thermodynamic solubility FaSSIF/SGF; assay type: physicochemical; settings: thermodynamic from solid
[2] = Plasma protein binding, mouse; assay type: in vitro ADME; settings: pooled plasma
[3] = test system: p-ERK (Tyr202/204) in SNU-16 cells; assay: SNU-16 cellular PD assay, p-ERK HTRF; assay type: cell-based; settings: Homo sapiens, SNU-16, 2 h, read-out: SNU16 PD IC50
[4] = Hepatocyte intrinsic clearance, mouse; assay type: in vitro ADME; settings: hepatocytes
[5] = test system: FGFR2 fusion-positive cholangiocarcinoma; settings: patients, across dose levels; cited from earlier work
pFGFR2 (Y653/654) = assay: Tumor PD; assay type: in vivo, mouse; settings: SNU-16 xenograft, BALB/c nude mice, oral 5 and 10 mg/kg twice daily groups, 2 h postdose
[6] = Plasma protein binding, rat; assay type: in vitro ADME; settings: Sprague-Dawley, pooled plasma
[7] = Plasma protein binding, dog; assay type: in vitro ADME; settings: beagle, pooled plasma
[8] = Hepatocyte intrinsic clearance, cynomolgus monkey; assay type: in vitro ADME; settings: hepatocytes
[9] = Hepatocyte intrinsic clearance, human; assay type: in vitro ADME; settings: hepatocytes
MEK5 = settings: test concentration 500 nmol/L; cited from earlier work
PK study IV/PO, rat = assay type: in vivo
PK study IV/PO, dog = assay type: in vivo
CACO2 permeability = settings: human, Caco-2
[10] = Plasma protein binding, cynomolgus monkey; assay type: in vitro ADME; settings: pooled plasma
MKNK2 = settings: test concentration 500 nmol/L; cited from earlier work
[11] = Hepatocyte intrinsic clearance, rat; assay type: in vitro ADME; settings: hepatocytes
[12] = Hepatocyte intrinsic clearance, dog; assay type: in vitro ADME; settings: hepatocytes
ELogD = assay type: physicochemical; settings: pH 7.4
[13] = PK study IV/PO, cynomolgus monkey; assay type: in vivo
[14] = Stability in plasma and blood; assay type: in vitro ADME; settings: plasma of all species, 5 μM, 37 °C, 18 h
PK study IV/PO, mouse = assay type: in vivo
[15] = Plasma protein binding, human; assay type: in vitro ADME; settings: pooled plasma

C=C(C)C(=O)Nc1ccc(-c2c(-c3ccc(Oc4nccc(C)n4)c(F)c3)c3c(N)ncnc3n2C)cc1 [Lirafugratinib]
solubility ([1]; FaSSIF): 49.3 µM (≈ 25.1 µg/mL)
solubility ([1]; SGF, simulated gastric fluid): 540 µM (≈ 275 µg/mL)
fraction unbound at 18 h, 5 μM [2]: 0.0082
IC50 [3]: 3 nM
hepatocyte CLint [4]: 29 µL/min/1e6 cells
adverse effects occurring with treatment [5]: minimal hyperphosphatemia and diarrhea
modulation of phosphorylated FGFR2 (pFGFR2) in tumor (pFGFR2 (Y653/654)): complete suppression
fraction unbound at 18 h, 5 μM [6]: 0.016
fraction unbound at 18 h, 5 μM [7]: 0.023
hepatocyte CLint [8]: 6.5 µL/min/1e6 cells
hepatocyte CLint [9]: < 1 µL/min/1e6 cells
inhibition of MEK5 in kinome panel (MEK5): 92.4%
IV CLu rat (PK study IV/PO, rat; IV, unbound): 3,813 mL/min/kg
Vd (PK study IV/PO, rat; Sprague-Dawley, in vivo, iv): 0.98 L/kg
half-life (PK study IV/PO, rat; Sprague-Dawley, in vivo, iv): 11.4 min
bioavailability (PK study IV/PO, rat; Sprague-Dawley, in vivo, po): 18%
IV CLu dog (PK study IV/PO, dog; IV, unbound): 1,200 mL/min/kg
Vd (PK study IV/PO, dog; beagle, plasma, iv): 1.3 L/kg
clearance (PK study IV/PO, dog; beagle, plasma, iv): 28 mL/min/kg
half-life (PK study IV/PO, dog; beagle, plasma, iv): 33 min
bioavailability (PK study IV/PO, dog; beagle, plasma, po): 53%
Papp A→B (CACO2 permeability): 5.3 ×10⁻⁶ cm/s
Papp B→A (CACO2 permeability): 6.8 ×10⁻⁶ cm/s
fraction unbound at 18 h, 5 μM [10]: 0.002
inhibition of MKNK2 in kinome panel (MKNK2): 89%
hepatocyte CLint [11]: 30 µL/min/1e6 cells
hepatocyte CLint [12]: 19 µL/min/1e6 cells
ELogD@7.4 (ELogD): 4.3/510
IV CLu cynomolgus monkey ([13]; IV, unbound): 1,100 mL/min/kg
Vd ([13]; plasma, iv): 0.26 L/kg
clearance ([13]; plasma, iv): 2.2 mL/min/kg
half-life ([13]; plasma, iv): 84 min
bioavailability ([13]; plasma, po): 47%
stability in plasma under PPB assay conditions [14]: stable
Vd (PK study IV/PO, mouse; BALB/c nude, plasma, iv): 0.42 L/kg
clearance (PK study IV/PO, mouse; BALB/c nude, plasma, iv): 4.4 mL/min/kg
half-life (PK study IV/PO, mouse; BALB/c nude, plasma, iv): 66 min
bioavailability (PK study IV/PO, mouse; BALB/c nude, plasma, po): 58%
IV CLu mouse (PK study IV/PO, mouse; IV, unbound): 538 mL/min/kg
fraction unbound at 18 h, 5 μM [15]: 0.0014
